For one test, the system named is SW1990 cells. Put plainly: Apoptosis induction in SW1990 cells, FACS analysis (Annexin V/PI). In kind it is cell-based, human. Conditions: SW1990 cells expressing G12D mutant K-Ras, 24 hours after addition; FIGS. 6B, 7B. How it is done:
In Example 7, apoptosis induction in a case where TUS-007, Ras-SOS, or Ras-SOS-NH2 was added to HeLa cells or SW1990 cells (human pancreatic cancer cells) had been added was evaluated by the FACS analysis. It is noted that in HeLa cells, the wild-type K-Ras protein (K-Ras-WT) is expressed, and in SW1990 cells, the G12D mutant K-Ras protein (K-Ras-G12D) is expressed.
HeLa cells or SW1990 cells were seeded in a 24-well plate at a cell density of 8×10^4 cells/well, and then cultured under conditions of 37° C. and 5 vol % CO2 for 16 hours.
After 16 hours from cell seeding, TUS-007, Ras-SOS, or Ras-SOS-NH2 were added to HeLa cells or SW1990 cells as follows. As a medium, a serum-free medium (37° C.) in which 1 mass % L-glutamine solution (Sigma-Aldrich) was added to D-MEM (high D-glucose, phenol red, sodium pyruvate (Wako Pure Chemical Industries, Ltd.)) was used. It is noted that the L-glutamine solution was added immediately before use. A DMSO solution containing TUS-007, Ras-SOS, or Ras-SOS-NH2 was mixed with the medium so that the concentration of DMSO was 1 vol %, and added to each well at 500 μL/well, and cultured under conditions of 37° C. and 5 vol % CO2. As a control, DMSO was used.
The medium was removed 24 hours after addition of TUS-007, Ras-SOS, or Ras-SOS-NH2, and then PBS was added to wash the cells. After removing PBS, trypsin (0.25 w/v % trypsin-1 mmol/L EDTA⋅4 Na solution with phenol red) (Wako Pure Chemical Industries, Ltd.) at 37° C. was added to each well at 200 μL/well, and cultured under conditions of 37° C. and 5 vol % CO2 for 1 minute. […]
A BD FACSCanto™ II (BD Biosciences) was used for flow cytometry. […] The proportion of Annexin V-positive and PI-negative cells was calculated using an analysis software FlowJo™ (TOMY Digital Biology Co., Ltd.), and the proportion was defined as a proportion of apoptosis cells.
In Example 8, apoptosis induction in a case where TUS-007, Ras-SOS-NH2, or erlotinib as an anticancer agent (EGFR inhibitor) was added to HeLa cells or SW1990 cells was evaluated by FACS analysis as in Example 7.
On the technique in general: A flow cytometer gives signals particle by particle.

Test [1] has as its target T1, endogenous wild-type K-Ras protein (Mus musculus, UniProt P32883).
T1 construct: an endogenous wild-type K-Ras protein and wild-type H-Ras protein; from tissue; host or cells: mouse pancreas and colon
As to the kind of experiment: Degradation of endogenous wild-type K-Ras protein in mouse pancreas and colorectal tissue, Western blot analysis. It is filed as in vivo. The settings on record: C57BL/6J mice, intraperitoneal, 48 hours, FIG. 8. How it is done:
In Example 9, in a mouse individual to which TUS-007 had been administered, the degradation (knockdown) of an endogenous wild-type K-Ras protein and wild-type H-Ras protein was evaluated by Western blot analysis.
TUS-007 was dissolved in DMSO, and then dissolved in corn oil so that the concentration of DMSO was 10 vol %, and then intraperitoneally administered to C57BL/6J wild-type mice (8 to 9 weeks old, male) (CLEA Japan, Inc.) in an amount of 40 mg/kg body weight or 80 mg/kg body weight (n=3 to 4). Furthermore, in addition to a group in which TUS-007 was administered, a group in which Ras-SOS had been administered in a dose of 80 mg/kg body weight was prepared. As a control, an injection carrier (corn oil containing 10 vol % DMSO) was used. The mice were kept under an environment of ad libitum access to food and water. The mice were dissected under deep anesthesia 48 hours after administration. The pancreas and colon were excised, and flash frozen in liquid nitrogen.
The frozen pancreas and colon were each triturated, and then TKM tissue lysis buffer (50 mM triethanolamine (pH 7.8), 50 mM KCl, 5 mM MgCl2, 0.25 M sucrose, 1 mM PMSF, Protein Inhibitors Cocktail-EDTA free (Nacalai Tesque, Inc.), 1 mM DTT, and a recombinant RNase inhibitor (0.2 U/μL, Takara Bio) were added, and subjected to centrifugation (at 13800 rpm×30 minutes, 4° C.), and the supernatants (pancreatic tissue extract and colorectal tissue extract) were collected. The concentration of the extracted proteins was quantified with a spectrophotometer.
Each tissue extract collected was subjected to Western blot analysis. […]
After electrophoresis, proteins were transferred to a PVDF membrane (Immobion™-P, Millipore) under conditions of 200 mA and 90 minutes using a tank-type blotting device and a transfer buffer (25 mM Tris-HCl, 195 mM glycine, 0.01% SDS, 15% methanol). […] Subsequently, the membrane was treated with a chemiluminescence reagent Immobilon™ Western (Millipore), and then chemiluminescence was detected using a lumino image analyzer LAS-3000 (FUJIFILM Corporation).
(In general: Immunoblotting shows a protein as a band on a membrane.)

This note sets out measurements from patent US11052154B2, “Ras protein degradation inducing molecule and pharmaceutical composition” (Tokyo University of Science Foundation, priority 2016, dated 2021).

T1 sequence (P32883 whole entry): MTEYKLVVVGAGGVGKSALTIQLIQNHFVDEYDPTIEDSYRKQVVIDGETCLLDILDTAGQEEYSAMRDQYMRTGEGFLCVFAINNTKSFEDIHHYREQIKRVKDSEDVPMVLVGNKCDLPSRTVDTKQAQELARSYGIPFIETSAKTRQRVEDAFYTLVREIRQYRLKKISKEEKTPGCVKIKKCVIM

For `CCC(C)[C@H](NC(=O)CCCCCCNC(=O)[C@H](CC(C)C)NC(=O)CNC(=O)c1cc(Cl)ccc1Cl)C(=O)Nc1ccc2[nH]c(Cc3c[nH]c4ccccc34)nc2c1` (stereo in doubt) [TUS-007], in the test on SW1990 cells, the “apoptosis induction (proportion of Annexin V-positive and PI-negative cells)” value is “the effect of the apoptosis by TUS-007 was high at the same level as in the case of the HeLa cells”. The “amount of the endogenous wild-type K-Ras protein in the pancreatic tissue (Western blot)” value in test [1] (40 or 80 mg/kg, pancreatic tissue) was “remarkably reduced in the pancreatic tissue”. The “amount of the endogenous wild-type K-Ras protein in mouse tissues (Western blot)” value in test [1] (TUS-007 40 or 80 mg/kg, Ras-SOS 80 mg/kg, pancreas and colon) was “reduced in a concentration-dependent manner”.
